Test results reported in PubChem BioAssay (NCI).
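Tested at 5 concentrations; 48 h exposure; 96-well plates; endpoints linearly interpolated, else capped at highest concentration. GI50 is the concentration that inhibits growth by half. TGI marks complete inhibition of growth.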

Tests used:
Experiment in all cases: inhibition of tumour cell growth, NCI panel, 48 h
T-47D breast = test system: T-47D breast
COLO 205 colon = test system: COLO 205 colon
MDA-MB-435 = test system: MDA-MB-435
NCI-H226 lung = test system: NCI-H226 lung
A549 NSCLC = test system: A549 NSCLC
HCT-116 colon = test system: HCT-116 colon
CCRF-CEM leukemia = test system: CCRF-CEM leukemia
OVCAR-4 ovarian = test system: OVCAR-4 ovarian
SNB-75 CNS = test system: SNB-75 CNS
HCT-15 colon = test system: HCT-15 colon
CAKI-1 renal = test system: CAKI-1 renal
SK-OV-3 ovarian = test system: SK-OV-3 ovarian
NCI-H460 lung = test system: NCI-H460 lung
SK-MEL-5 melanoma = test system: SK-MEL-5 melanoma
K-562 leukemia = test system: K-562 leukemia
HL-60(TB) leukemia = test system: HL-60(TB) leukemia
MALME-3M melanoma = test system: MALME-3M melanoma
RPMI-8226 leukemia = test system: RPMI-8226 leukemia
BT-549 breast = test system: BT-549 breast
A498 renal = test system: A498 renal
HOP-92 NSCLC = test system: HOP-92 NSCLC
OVCAR-5 ovarian = test system: OVCAR-5 ovarian
786-0 renal = test system: 786-0 renal
RXF 393 renal = test system: RXF 393 renal
SW-620 colon = test system: SW-620 colon
UACC-62 melanoma = test system: UACC-62 melanoma
ACHN renal = test system: ACHN renal
OVCAR-3 ovarian = test system: OVCAR-3 ovarian
HOP-62 NSCLC = test system: HOP-62 NSCLC

What does the source list for `CCc1nn2c(C)cc(C)nc2c1Cc1ccc(/C=C/CN2CCN(CCOCCOCCN3CCN(C/C=C/c4ccc(Cc5c(CC)nn6c(C)cc(C)nc56)cc4)CC3)CC2)cc1`?
GI50 (T-47D breast): 1.74 µM; TGI (T-47D breast): 3.74 µM; GI50 (COLO 205 colon): 1.71 µM; TGI (COLO 205 colon): 3.22 µM; GI50 (MDA-MB-435): 1.75 µM; TGI (MDA-MB-435): 3.26 µM; GI50 (NCI-H226 lung): 5.09 µM; TGI (NCI-H226 lung): 10.9 µM; GI50 (A549 NSCLC): 4.25 µM; TGI (A549 NSCLC): 8.78 µM; GI50 (HCT-116 colon): 1.63 µM; TGI (HCT-116 colon): 3.16 µM; GI50 (CCRF-CEM leukemia): 1.64 µM; TGI (CCRF-CEM leukemia): 4.18 µM; GI50 (OVCAR-4 ovarian): 1.8 µM; TGI (OVCAR-4 ovarian): 3.86 µM; GI50 (SNB-75 CNS): 4.09 µM; TGI (SNB-75 CNS): 8.18 µM; GI50 (HCT-15 colon): 1.69 µM; TGI (HCT-15 colon): 3.4 µM; GI50 (CAKI-1 renal): 1.59 µM; TGI (CAKI-1 renal): 3.35 µM; GI50 (SK-OV-3 ovarian): 5.75 µM; TGI (SK-OV-3 ovarian): 10.5 µM; GI50 (NCI-H460 lung): 1.88 µM; TGI (NCI-H460 lung): 3.53 µM; GI50 (SK-MEL-5 melanoma): 1.87 µM; TGI (SK-MEL-5 melanoma): 3.52 µM; GI50 (K-562 leukemia): 1.79 µM; TGI (K-562 leukemia): 4.41 µM; GI50 (HL-60(TB) leukemia): 1.78 µM; TGI (HL-60(TB) leukemia): 3.74 µM; GI50 (MALME-3M melanoma): 1.73 µM; TGI (MALME-3M melanoma): 3.23 µM; GI50 (RPMI-8226 leukemia): 1.87 µM; TGI (RPMI-8226 leukemia): 4.33 µM; GI50 (BT-549 breast): 4.98 µM; TGI (BT-549 breast): 9.52 µM; GI50 (A498 renal): 5.15 µM; TGI (A498 renal): 9.66 µM; GI50 (HOP-92 NSCLC): 2.37 µM; TGI (HOP-92 NSCLC): 7.16 µM; GI50 (OVCAR-5 ovarian): 4.8 µM; TGI (OVCAR-5 ovarian): 9.34 µM; GI50 (786-0 renal): 1.72 µM; TGI (786-0 renal): 3.28 µM; GI50 (RXF 393 renal): 1.68 µM; TGI (RXF 393 renal): 3.97 µM; GI50 (SW-620 colon): 1.7 µM; TGI (SW-620 colon): 3.31 µM; GI50 (UACC-62 melanoma): 1.74 µM; TGI (UACC-62 melanoma): 3.3 µM; GI50 (ACHN renal): 2.25 µM; TGI (ACHN renal): 5.2 µM; GI50 (OVCAR-3 ovarian): 2.58 µM; TGI (OVCAR-3 ovarian): 7.12 µM; GI50 (HOP-62 NSCLC): 4.63 µM; TGI (HOP-62 NSCLC): 9.44 µM
